Biological target: T1, human NPC1L1 (Homo sapiens, UniProt Q9UHC9)
T1 sequence (Q9UHC9 22-1359): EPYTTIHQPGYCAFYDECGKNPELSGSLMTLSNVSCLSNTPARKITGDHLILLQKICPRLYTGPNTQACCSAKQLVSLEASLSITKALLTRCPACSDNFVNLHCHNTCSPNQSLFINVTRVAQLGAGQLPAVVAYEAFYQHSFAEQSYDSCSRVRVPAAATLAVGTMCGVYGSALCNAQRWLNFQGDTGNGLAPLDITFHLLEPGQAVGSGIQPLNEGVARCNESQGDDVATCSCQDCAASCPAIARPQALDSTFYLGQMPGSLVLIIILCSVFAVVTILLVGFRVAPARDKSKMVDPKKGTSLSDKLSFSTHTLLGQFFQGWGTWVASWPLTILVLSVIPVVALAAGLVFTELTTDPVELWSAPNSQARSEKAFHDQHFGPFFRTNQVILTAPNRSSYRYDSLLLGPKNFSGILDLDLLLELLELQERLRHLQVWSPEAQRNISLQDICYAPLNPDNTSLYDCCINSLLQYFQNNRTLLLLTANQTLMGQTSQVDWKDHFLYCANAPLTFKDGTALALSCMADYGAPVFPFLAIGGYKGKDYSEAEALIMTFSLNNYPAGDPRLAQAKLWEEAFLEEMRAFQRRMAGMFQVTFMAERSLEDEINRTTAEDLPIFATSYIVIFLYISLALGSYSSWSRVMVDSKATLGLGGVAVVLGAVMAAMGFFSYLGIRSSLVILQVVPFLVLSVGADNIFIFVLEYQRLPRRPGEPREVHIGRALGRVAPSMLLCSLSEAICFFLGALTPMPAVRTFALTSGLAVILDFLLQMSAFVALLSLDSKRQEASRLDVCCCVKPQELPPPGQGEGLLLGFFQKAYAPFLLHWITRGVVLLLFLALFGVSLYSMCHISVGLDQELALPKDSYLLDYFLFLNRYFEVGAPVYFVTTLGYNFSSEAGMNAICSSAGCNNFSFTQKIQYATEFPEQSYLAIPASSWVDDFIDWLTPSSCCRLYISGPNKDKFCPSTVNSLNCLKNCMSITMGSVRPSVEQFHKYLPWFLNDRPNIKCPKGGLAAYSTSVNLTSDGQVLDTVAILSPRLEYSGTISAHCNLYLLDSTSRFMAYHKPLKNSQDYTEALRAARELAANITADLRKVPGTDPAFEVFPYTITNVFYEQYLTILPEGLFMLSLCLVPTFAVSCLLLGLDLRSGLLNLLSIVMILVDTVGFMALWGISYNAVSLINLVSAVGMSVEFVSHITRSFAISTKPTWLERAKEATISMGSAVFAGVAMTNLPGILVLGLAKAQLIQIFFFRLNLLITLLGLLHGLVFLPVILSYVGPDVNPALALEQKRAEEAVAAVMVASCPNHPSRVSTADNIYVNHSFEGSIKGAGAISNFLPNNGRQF
Test: 3H-cholesterol uptake inhibition in hNPC1L1/MDCKII cells
Type: cell-based

IC50	Compound
3860 nM	O=C1[C@H](CC[C@H](O)c2ccc(F)cc2)[C@@H](c2ccc(O)cc2)N1c1ccc(F)cc1 [Eze, ezetimibe]
682 nM	O=C(O)[C@H]1O[C@@H](Oc2ccc([C@@H]3[C@@H](CC[C@H](O)c4ccc(F)cc4)C(=O)N3c3ccc(F)cc3)cc2)[C@H](O)[C@@H](O)[C@@H]1O [Eze-Glu, ezetimibe-glucuronide]
